Laboratory results published in ChEMBL document CHEMBL1144155, “Synthesis of 3-alkyl naphthalenes as novel estrogen receptor ligands” (Bioorg Med Chem Lett, 2008).

Assays:
Estrogen receptor beta = Estrogen receptor beta (Homo sapiens, UniProt Q92731)
Estrogen receptor = target: T1, Estrogen receptor (Homo sapiens, UniProt P03372)
T1 sequence (P03372 whole entry): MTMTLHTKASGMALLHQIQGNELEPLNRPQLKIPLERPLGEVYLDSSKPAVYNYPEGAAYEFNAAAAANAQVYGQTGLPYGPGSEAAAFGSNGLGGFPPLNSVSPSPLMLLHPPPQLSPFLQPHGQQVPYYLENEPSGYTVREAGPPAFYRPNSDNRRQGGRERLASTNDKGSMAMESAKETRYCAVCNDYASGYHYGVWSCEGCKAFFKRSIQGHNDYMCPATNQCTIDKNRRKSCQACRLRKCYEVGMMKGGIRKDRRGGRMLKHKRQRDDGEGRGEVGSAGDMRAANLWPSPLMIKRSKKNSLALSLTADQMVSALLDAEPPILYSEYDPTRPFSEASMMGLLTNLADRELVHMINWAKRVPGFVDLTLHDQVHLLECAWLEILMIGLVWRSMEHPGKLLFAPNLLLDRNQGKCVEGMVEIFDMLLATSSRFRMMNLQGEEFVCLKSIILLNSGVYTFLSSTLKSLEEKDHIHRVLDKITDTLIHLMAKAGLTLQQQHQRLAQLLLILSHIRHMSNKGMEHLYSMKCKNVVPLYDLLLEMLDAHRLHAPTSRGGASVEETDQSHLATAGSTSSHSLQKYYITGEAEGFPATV

Estrogen receptor beta, sequence (Q92731 whole entry): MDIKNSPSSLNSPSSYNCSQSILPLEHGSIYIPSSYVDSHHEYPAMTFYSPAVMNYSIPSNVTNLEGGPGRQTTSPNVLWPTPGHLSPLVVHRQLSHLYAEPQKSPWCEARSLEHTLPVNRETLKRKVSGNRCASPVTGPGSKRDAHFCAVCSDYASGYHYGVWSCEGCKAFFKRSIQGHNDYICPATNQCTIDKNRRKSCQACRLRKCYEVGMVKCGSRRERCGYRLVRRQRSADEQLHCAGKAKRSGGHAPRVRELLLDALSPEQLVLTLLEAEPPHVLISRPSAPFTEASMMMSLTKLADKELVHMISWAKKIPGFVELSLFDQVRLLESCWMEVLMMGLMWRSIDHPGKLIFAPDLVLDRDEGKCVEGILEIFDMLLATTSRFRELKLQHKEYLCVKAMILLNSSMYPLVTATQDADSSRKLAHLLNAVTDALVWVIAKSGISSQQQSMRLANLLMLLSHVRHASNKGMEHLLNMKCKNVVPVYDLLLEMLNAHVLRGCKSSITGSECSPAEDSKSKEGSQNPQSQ

Row | SMILES | Ki (Estrogen receptor beta) [nM] | Ki (Estrogen receptor) [nM]
1 | CCCCCc1cc2cc(O)ccc2c(Oc2ccc(/C=C/C(=O)O)cc2)c1-c1ccccc1 | 3 | 2
2 | O=C(O)/C=C/c1ccc(Oc2c(-c3ccccc3)c(C3CC3)cc3cc(O)ccc23)cc1 | 16 | 60
3 | CCCCc1cc2ccccc2c(Oc2ccc(/C=C/C(=O)O)cc2)c1-c1ccccc1 | 170 | 977
4 | CCCCc1cc2ccccc2c(Oc2ccc(/C=C/C(=O)O)cc2)c1-c1ccc(OC)cc1 | 162 | 158
5 | COCc1cc2ccccc2c(Oc2ccc(/C=C/C(=O)O)cc2)c1-c1ccccc1 | 501 | 692

Now from value to compound:

Row | Ki (Estrogen receptor beta) [nM] | Ki (Estrogen receptor) [nM] | SMILES
6 | 30 | 55 | CCCCCCCCc1cc2cc(O)ccc2c(Oc2ccc(/C=C/C(=O)O)cc2)c1-c1ccccc1
7 | 22 | 28 | CC(C)Cc1cc2cc(O)ccc2c(Oc2ccc(/C=C/C(=O)O)cc2)c1-c1ccccc1
8 | 4 | 4 | CCCCc1cc2cc(O)ccc2c(Oc2ccc(/C=C/C(=O)O)cc2)c1-c1ccccc1
9 | 48 | 52 | CCCCc1cc2ccccc2c(Oc2ccc(/C=C/C(=O)O)cc2)c1-c1ccc(O)cc1
10 | 110 | 724 | CCCCc1cc2ccccc2c(Oc2ccc(/C=C/C(=O)O)cc2)c1-c1ccc(F)cc1
